Legend:
[1] = system: breast cancer MB231 cell; assay: MTT cell viability (cell toxicity) of cancer cells co-cultured with short peptides; assay type: cell-based, human; conditions: MB231 co-cultured with increasing amount of short peptide for 24 hours or 48 hours; FIG. 1B
Procedure: After the human breast cancer MB231 cell of Example 2 was co-cultured with the short peptides RI37, GI40 and KT44 of Example 1 for 24 hours or 48 hours, the cell toxicity was analyzed by using MTT [3-(4,5-dimethylthiazol-2-yl)-2,5-[…] tetrazolium bomide] (Sigma). The transparent and colorless tetrazolium salt of MTT was degraded by mitochondrial dehydrogenase in live cells and converted to blue formazan crystals. Based on the cell viability of the cell in the absence of the short peptides of Example 1 as 100%, the influence of the cancer cell proliferation could be determined by using the short peptides.

[2] = system: breast cancer MB231 cell; assay: Sphere formation (cancer stemness) induced by euPTX3; assay type: cell-based, human; conditions: short peptide 10 μg/mL or 225 nM + euPTX3 2.5 μg/mL, 2 weeks, FIG. 1C
Procedure: (§1) Each well of the multi-well plate with ultra-low attachment surface (Corning Inc.) was inoculated with the cell density 5×10^3 cells/well of the breast cancer MB231 cell, the lung cancer A549 cell and the nasopharyngeal cancer HONE1 cell, all of which were co-cultured with the short peptides R137, GI40, KT44 (10 μg/mL or 225 nM of the short peptide) and the polypeptide euPTX3 (2.5 μg/mL) of Example 1 in serum-free medium DMEM/F12 (Gibco) [containing B27 (Invitrogen), 20 ng/mL of epidermal growth factor (EGF; Abcam) and 10 ng/mL of basic Fibroblast Growth Factor (bFGF; Peprotech)]. After 2 weeks of cultivation, the cell spheres were observed by optical microscopy.

[3] = system: lung cancer A549 cell; assay: as above; assay type: cell-based, human; conditions: short peptide 10 μg/mL or 225 nM + euPTX3 2.5 μg/mL, 2 weeks, FIG. 2A
Procedure: as §1

[4] = system: nasopharyngeal cancer HONE1 cell; assay: as above; assay type: cell-based, human; conditions: short peptide 10 μg/mL or 225 nM + euPTX3 2.5 μg/mL, 2 weeks, FIG. 3A
Procedure: as §1

[5] = system: breast cancer MB231 cell; assay: Drug resistance (CDDP, 5-FU) induced by euPTX3, MTT assay; assay type: cell-based, human; conditions: MB231; short peptide 10 μg/mL or 225 nM + euPTX3 2.5 μg/mL 1 week, then 40 μM CDDP or 100 μM 5-FU 48 hours; FIG. 1D
Procedure: (§2) The cell density 1×10^4 cells/well of the breast cancer MB231 cell, the lung cancer A549 cell and the nasopharyngeal cancer HONE1 cell were co-cultured with the short peptides RI37, GI40 and KT44 (10 μg/mL or 225 nM of the short peptide) and the polypeptide euPTX3 (2.5 μg/mL) of Example 1. After 1 week of cultivation, those cancer cells were added with 40 μM of CDDP or 100 μM of 5-FU respectively and cultured for 48 hours. Based on the cell viability of the cells only co-cultured with the polypeptide euPTX3 (2.5 μg/mL) as 100%, the influence of drug resistance of the cancer cells of Example 2 using the short peptides of Example 1 could be determined according to the aforementioned MTT assay.

[6] = system: lung cancer A549 cell; assay: as above; assay type: cell-based, human; conditions: A549; short peptide 10 μg/mL or 225 nM + euPTX3 2.5 μg/mL 1 week, then 40 μM CDDP or 100 μM 5-FU 48 hours; FIG. 2B
Procedure: as §2

[7] = system: nasopharyngeal cancer HONE1 cell; assay: as above; assay type: cell-based, human; conditions: HONE1; short peptide 10 μg/mL or 225 nM + euPTX3 2.5 μg/mL 1 week, then 40 μM CDDP or 100 μM 5-FU 48 hours; FIG. 3B
Procedure: as §2

[8] = system: drug-resistant 4T1R breast cancer; assay: Allograft tumor model, CDDP-resistant 4T1R cells in BALB/c mice; assay type: in vivo, mouse; conditions: 4T1R in BALB/c mice; for drug resistance generated by the tumor: 50 μg short peptide intratumorally twice weekly combined with CDDP 5 mg/kg i.p. once weekly; for drug resistance generated by the tumor / tumor growth (tumor size): FIG. 4A; for tumor growth (tumor size): 50 μg short peptide intratumorally twice weekly; for tumor metastasis and growth (images of tumors of various organs, epi-fluorescence radiance efficiency): IVIS imaging; for tumor metastasis (number of metastatic nodules per lung) / tumor growth (tumor weight per lung): sacrificed after six weeks; for tumor metastasis (number of metastatic nodules per lung): FIG. 4B left panel; for tumor growth (tumor weight per lung): FIG. 4B right panel
Procedure: In this Example, 1×10^6 mCherry fluorescent protein-labeled CDDP-resistant mouse 4T1 cells (4T1R; ATCC CRL-2539) were inoculated subcutaneously to the rear side of the back of six to eight-week-old female BALB/c mice (purchased from Laboratory Animal Center of National Cheng Kung University). After 1 week of inoculation, the mice were intraperitoneally injected with 5 mg/kg of CDDP [dissolved in 1% (w/v) DMSO] or only 1% (w/v) of DMSO once weekly, and intratumorally uninjected or injected with 50 μg of the short peptides RI37, GI40 and KT44 of Example 1 twice weekly. The mice were sacrificed after six weeks of inoculation. Spleen, kidneys, lungs and liver were obtained, tumor weight of those organs were measured according to 6 replications per group, and the metastatic activity and the number of metastatic nodules per organ were confirmed by IVIS Spectrum Imaging System 200 (Caliper). The tumor size was measured by a commercial external caliper, and the tumor volume (V) was calculated by the following formula (I): […]
In the formula (I), w was referred to tumor width, l was referred to tumor length. Each condition of the experiment was repeated at least thrice.

[9] = system: drug-resistant MB231R breast cancer; assay: Xenograft tumor model, CDDP-resistant MB231R cells in NOD-SCID mice; assay type: in vivo, mouse; conditions: for drug resistance generated by the tumor: 50 μg short peptide intratumorally twice weekly combined with CDDP 5 mg/kg i.p. once weekly; for drug resistance generated by the tumor / tumor growth (tumor size): FIG. 4D; for tumor growth (tumor size): 50 μg short peptide intratumorally twice weekly; for tumor metastasis and growth (images of tumors of various organs, epi-fluorescence radiance efficiency): IVIS imaging; for tumor metastasis (number of metastatic nodules per lung) / tumor growth (tumor weight per lung): sacrificed after ten weeks; for tumor metastasis (number of metastatic nodules per lung): FIG. 4E left panel; for tumor growth (tumor weight per lung): FIG. 4E right panel
Procedure: Besides, 1×10^6 mCherry fluorescent protein-labeled CDDP-resistant human MDA-MB-231 cells (MB231R; ATCC CRL-2539) were inoculated subcutaneously to the rear side of the back of six to eight-week-old female NOD-SCID immunodeficiency mice (purchased from Laboratory Animal Center of National Cheng Kung University). After 1 week of inoculation, the mice were intraperitoneally injected with 5 mg/kg of CDDP [dissolved in 1% (w/v) DMSO] or only 1% (w/v) of DMSO once weekly, and intratumorally uninjected or injected with 50 μg of the short peptides RI37, GI40 and KT44 of Example 1 twice weekly. The mice were sacrificed after ten weeks of inoculation. Spleen, kidneys, lungs and liver were obtained, tumor weight of those organs were measured according to 3 replications per group, and the metastatic activity and the number of metastatic nodules per organ were confirmed by IVIS Spectrum Imaging System. The tumor size was measured by a commercial external caliper, and the tumor volume (V) was calculated by the following formula (I). Each condition of the experiment was repeated at least thrice.

| Substance | cell viability [1] | number of spheres induced by the polypeptide euPTX3 [2] | number of spheres induced by the polypeptide euPTX3 [3] | number of spheres induced by the polypeptide euPTX3 [4] | drug resistance induced by the polypeptide euPTX3 (cell viability) [5] | drug resistance induced by the polypeptide euPTX3 (cell viability) [6] | drug resistance induced by the polypeptide euPTX3 (cell viability) [7] | drug resistance generated by the tumor [8] | tumor growth (tumor size) [8] | tumor metastasis and growth (images of tumors of various organs, epi-fluorescence radiance efficiency) ([8]; FIG. 4C) | tumor metastasis (number of metastatic nodules per lung) [8] | tumor growth (tumor weight per lung) [8] | drug resistance generated by the tumor [9] | tumor growth (tumor size) [9] | tumor metastasis and growth (images of tumors of various organs, epi-fluorescence radiance efficiency) ([9]; FIG. 4F) | tumor metastasis (number of metastatic nodules per lung) [9] | tumor growth (tumor weight per lung) [9] | metastatic nodules in organs (imaging) ([8]; FIG. 4C) | metastatic nodules in organs (imaging) ([9]; FIG. 4F) |
| --- | --- | --- | --- | --- | --- | --- | --- | --- | --- | --- | --- | --- | --- | --- | --- | --- | --- | --- | --- |
| GI40: artificially synthetic short peptide having the amino acid sequence listed as SEQ ID NO:2, designed from human PTX3 (NP_002843.2) (GGGFDETLAFSGRLTGFNIWDSVLSNEEIRETGGAESCHI; The 320th amino acid to 359th amino acid of Human sapiens PTX3 (GI40)) | no significant influence on the cell viability | could effectively inhibit the number of spheres | could effectively inhibit the number of spheres | could effectively inhibit the number of spheres | could effectively inhibit the drug resistance | could effectively inhibit the drug resistance | could effectively inhibit the drug resistance | reduce the drug resistance | could inhibit tumor growth | could inhibit tumor metastasis and growth | could inhibit tumor metastasis | could inhibit tumor metastasis and growth | reduce the drug resistance | could inhibit tumor growth | could inhibit tumor metastasis and growth | could inhibit tumor metastasis | could inhibit tumor metastasis and growth |  |  |
| KT44: artificially synthetic peptide having the amino acid sequence listed as SEQ ID NO:3 (KLVAEAMVSLGRWTHLCGTWNSEEGLTSLWVNGELAATTVEMAT; The 255th amino acid to 298th amino acid of Human sapiens PTX3 (KT44)) | no significant influence on the cell viability | could not inhibit the number of spheres | could not inhibit the number of spheres | could not inhibit the number of spheres | could not significantly inhibit the drug resistance | could not significantly inhibit the drug resistance | could not significantly inhibit the drug resistance |  | could not significantly inhibit the tumor growth | could not significantly inhibit tumor metastasis and growth | could not significantly inhibit tumor metastasis | could not significantly inhibit tumor metastasis and growth |  | could not significantly inhibit the tumor growth | could not significantly inhibit tumor metastasis and growth | could not significantly inhibit tumor metastasis | could not significantly inhibit tumor metastasis and growth | metastatic nodules was found in lungs | metastatic nodules was found in lungs |
| RI37: artificially synthetic short peptide having the amino acid sequence listed as SEQ ID NO:1, designed from human PTX3 (NP_002843.2) (RPMRLESFSACIWVKATDVLNKTILFSYGTKRNPYEI; The 200th amino acid to 236th amino acid of Human sapiens PTX3 (RI37)) | no significant influence on the cell viability | could effectively inhibit the number of spheres | could effectively inhibit the number of spheres | could effectively inhibit the number of spheres | could effectively inhibit the drug resistance | could effectively inhibit the drug resistance | could effectively inhibit the drug resistance | reduce the drug resistance | could inhibit tumor growth | could inhibit tumor metastasis and growth | could inhibit tumor metastasis | could inhibit tumor metastasis and growth | reduce the drug resistance | could inhibit tumor growth | could inhibit tumor metastasis and growth | could inhibit tumor metastasis | could inhibit tumor metastasis and growth |  |  |
